Reference: paper PMC6327985, “Soyasaponins from Zolfino bean as aldose reductase differential inhibitors” (Journal of Enzyme Inhibition and Medicinal Chemistry, 2018)
Read-outs that look alike come from different tables or passages of the source.

Molecular target: T1, human recombinant AKR1B1 (hAKR1B1) (Homo sapiens, UniProt P15121)
T1 construct: made in house
Test: Assay of aldose reductase: hAKR1B1-catalysed NADPH-dependent reduction of L-idose or HNE, decrease in absorbance at 340 nm
Format: biochemical
Details: for IC50: 8 mU hAKR1B1, authentic standard; for K’i (ternary enzyme-substrate-inhibitor complex dissociation constant) / Ki: Hanes-Woolf analysis, mean ± SEM; for Ki: read-out: Ki (binary enzyme-inhibitor complex dissociation constant)
Experimental: The AKR1B1 activity was determined at 37 °C as previously described, monitoring the decrease in absorbance at 340 nm linked to NADPH oxidation (ε340=6.22 mM^−1 cm^−1) through a Biochrom Libra S60 spectrophotometer. In a 0.25 M sodium phosphate buffer pH 6.8, the standard assay mixture contained 0.18 mM NADPH, 0.4 M ammonium sulphate, 0.5 mM EDTA and 4.7 mM GAL. One unit of enzyme activity is the amount that catalyses the conversion of 1 µmol of substrate/min in the above assay conditions. These assay conditions were also adopted to assess the effectiveness of inhibitors when L-idose or HNE were used, at the indicated concentrations, as substrates instead of GAL. Differential inhibition (DI) refers to the difference between the percentage inhibition observed using L-idose and HNE as substrates in the assay conditions indicated.
The human recombinant AKR1B1 (hAKR1B1) was expressed and purified to electrophoretic homogeneity as previously described. The purified enzyme (specific activity 5.3 U/mg) was stored at −80 °C in a 10 mM sodium phosphate buffer pH 7.0 containing 2 mM DTT and 30% (w/v) glycerol. Before use, the enzyme was extensively dialysed against a 10 mM sodium phosphate buffer pH 7.0.
The protein concentration was determined by the Coomassie blue staining method, using BSA as a standard protein. Statistical analysis was performed using the two-way ANOVA test carried out with Graphpad 6.0 software. IC50 determination was performed using standard statistical software (GraphPad Instat version 6.0, San Diego, CA). Results are reported as the mean of the values and the 95% confidence interval from at least three independent measurements.

[1] = substrate 0.04 mM HNE, read-out: IC50 for HNE reduction
[2] = substrate 0.8 mM L-idose, read-out: IC50 for L-idose reduction

| IC50 [1] [µM] | IC50 [2] [µM] | K’i (ternary enzyme-substrate-inhibitor complex dissociation constant) (substrate HNE) [µM] | Ki (substrate HNE) [µM] | K’i (ternary enzyme-substrate-inhibitor complex dissociation constant) (substrate L-idose) [µM] | Ki (substrate L-idose) [µM] | inhibition model (with respect to HNE) | inhibition model (with respect to L-idose) | SMILES |
| --- | --- | --- | --- | --- | --- | --- | --- | --- |
| 47 | 40 | 23 ± 4 | 65 ± 12 | 24 ± 2 | 66 ± 17 | mixed inhibitor | mixed inhibitor | CC1(C)C[C@@H](O)[C@]2(C)CC[C@]3(C)C(=CC[C@@H]4[C@@]5(C)CC[C@H](O[C@@H]6O[C@H](C(=O)O)[C@@H](O)[C@H](O)[C@H]6O[C@@H]6O[C@H](CO)[C@H](O)[C@H](O)[C@H]6O[C@@H]6O[C@H](CO)[C@@H](O)[C@H](O)[C@H]6O)[C@](C)(CO)[C@@H]5CC[C@]43C)[C@@H]2C1 [SSBa, soyasaponin Ba (V)] |
| 360 | 170 | 248 ± 19 |  | 191 ± 11 | 176 ± 35 | uncompetitive | purely non-competitive inhibitor | C[C@@H]1O[C@@H](O[C@H]2[C@H](O[C@H]3[C@H](O[C@H]4CC[C@@]5(C)[C@@H](CC[C@]6(C)[C@@H]5CC=C5[C@@H]7CC(C)(C)C[C@@H](O)[C@]7(C)CC[C@]56C)[C@@]4(C)CO)O[C@H](C(=O)O)[C@@H](O)[C@@H]3O)O[C@H](CO)[C@H](O)[C@@H]2O)[C@H](O)[C@H](O)[C@H]1O [SSBb, soyasaponin Bb (I)] |
